Assay results reported in patent US9844522B2 (LIFE & BRAIN GMBH, priority 2012, dated 2017).
“Also recorded” adds a separate entry of the source. Read-outs that look alike come from different tables or passages of the source.

Key:
pGBMs [1] = experiment: Combinatorial pharmacodynamics niclosamide and TMZ (alamarBlue); format: cell-based; conditions: Homo sapiens; 50 μM TMZ alone, pGBMs n=7, triplicate; read-out: Metabolic activity, % of control levels
Procedure: (§1) For pharmacodynamic analysis, 5×10^4 cells were plated in 12-well-plates at 24 hours before application of compound-series and compound combinations, respectively. alamarBlue®-based analysis was conducted at 3-5 days post treatment. Experiments were performed in triplicates. IMC50 was defined as the compound concentration that reduced the metabolic activity by 50% compared to control conditions and determined via data analysis in GraphPad Prism 4.0.

standard GBM cell lines = experiment: as above; format: cell-based; conditions: Homo sapiens; 50 μM TMZ alone, GBMs (standard cell lines); read-out: Metabolic activity, % of control levels
Procedure: as §1

U87 glioma cell line = experiment: Primary drug screening, alamarBlue metabolic activity; format: cell-based, human; conditions: 1 µM niclosamide for 5 days, triplicate
Procedure: (§2) The tested compounds were supplied to cells proliferating in a linear-exponential phase. For all used cell samples, respective titration experiments were conducted before analysis. 24 hours after seeding 2-3×10^3 cells/well into laminin/poly-L-ornithine coated 96-well plates, cells were treated with 1 μM of each compound (stock solution 10 mM in DMSO). Control cells were treated with 0.01-0.1% DMSO. Five days after application, metabolic activity as a measure of cell viability was determined using the alamarBlue® assay according to the manufacturers recommendations (Life Technologies). Fluorescence was measured using an Infinite200 microplate reader (Tecan) at λex=540 nm and λem=590 nm. Experiments were performed in triplicates for each sample.
(§3) A library comprising of 160 synthetic and natural toxic substances was used for the screening approach. Four pGBMs, previously shown to maintain patient- and GBM-specific signatures and to contain sub-populations of tumor cells with and without stem cell qualities served as a discovery platform (#'s 023, 035, 046, 106; see (10)). Primary screening was conducted based on the alamarBlue® assay determining the metabolic activity as a measure for cellular viability at day 5 following single application of the library's compounds. In the experiments, every compound that reduced the mean metabolic activity of the 4 pGBMs below 50% of control levels was considered as a ‘hit’.

[2] = tested on: pGBMs (primary glioblastoma cells); experiment: as above; format: cell-based, human; conditions: for Metabolic activity in % of the activity of a control without niclosamide: triplicate
Procedure: as §2, §3

[3] = tested on: #155 non-malignant primary adult human neural progenitor cells (AHNPs); experiment: as above; format: cell-based; conditions: control cells 155; 1 µM niclosamide for 5 days, triplicate
Procedure: as §2
A library comprising of 160 synthetic and natural toxic substances was used for the screening approach. Four pGBMs, previously shown to maintain patient- and GBM-specific signatures and to contain sub-populations of tumor cells with and without stem cell qualities served as a discovery platform (#'s 023, 035, 046, 106; see (10)). Primary screening was conducted based on the alamarBlue® assay determining the metabolic activity as a measure for cellular viability at day 5 following single application of the library's compounds. […]

21 pGBMs = experiment: Pharmacodynamic analysis (alamarBlue dose-response, IC50); format: cell-based; conditions: Homo sapiens, 120 h
Procedure: as §1

[4] = tested on: glioma/GBM cell lines LN229, T98G, U87, U138, U373; experiment: as above; format: cell-based, human; conditions: defined media (dm) conditions
Procedure: as §1

[5] = tested on: non-malignant hnNCs (human non-malignant neural cells); experiment: Pharmacodynamic analysis (alamarBlue dose-response); format: cell-based; conditions: three hnNCs, defined culture conditions
Procedure: as §1

[6] = tested on: hnNCs co-cultured with pGBMs; experiment: Co-culture of pGBMs and hnNCs; format: cell-based, human; conditions: dm conditions, niclosamide 1 μM
Cyclin D1 = experiment: Western blot of Cyclin D1; format: cell-based, human; conditions: 24 hours post application
Procedure: (§4) Cell extracts were prepared at 24 to 144 hours following compound application and processed as described (49). Blot membranes were incubated overnight at 4° C. with antibodies against Cyclin-D1 (1:1000; BD Pharmingen), cleaved-Notch1 (1:1000), or phospho-S6 protein (1:1000; all Cell signaling) respectively. After washing, peroxidase-coupled secondary antibodies (Santa Cruz) were added for 1 hour. After washing, blots were developed using the ECL system (Millipore).

pGBMs [7] = experiment: Proliferation kinetics / long-term cell growth (CellaVista); format: cell-based, human
pGBMs [8] = experiment: Annexin V/Hoechst FACS analysis; format: cell-based, human; conditions: 5 days after application
[9] = tested on: non-malignant human cell sample #155; experiment: Annexin V/Hoechst FACS analysis; format: cell-based; conditions: 5 days after application
Procedure: (B) CYCLIN D1 (CCND1)-western blot of cell extracts derived at this time point. […] Inset: mean data (n=5 pGBMs; **p<0.01). […] Right inset: representative scatter plots (#046). […] The graph exemplifies the time course of scratch closure for case #046 (mean±SD; triplicate analysis).
1×10^5 cells were collected at 5 days following compound application, settled by centrifugation, re-suspended in 100 μl AnnexinV buffer and incubated with 5 μl Annexin V-FITC for 1 hour at room temperature. To distinguish between living and dead cells, labeling with 1.2 μg/ml Hoechst 33258 was used Annexin V presence was determined using standard conditions in a LSRII equipped with FACSDiva Software (BD Bioscience). 2×10^4 cells were counted per measurement. The term ‘avital cells’ was used for Annexin V^+−, Annexin V^+/H33258^+, and H33258^+ cells.

pGBMs [10] = experiment: Cell migration analysis (scratch assay); format: cell-based, human; conditions: sub-toxic concentrations, 125 nM
Procedure: 5×10^4 cells were plated into 12-well-plates coated with laminin/poly-L-ornithine. […] Three days after plating (at a cell density of 70%), a scratch/wound was inflicted with a sterile pipette tip. Thereafter, culture media was exchanged to remove non-adherent cells. The Plaque Assay application of the CellaVista® system (Roche Diagnostics) was used according to the manufacturer's instructions to monitor the scratch/wound size over time. Triplicate analysis data±SEM.

[11] = tested on: self-renewing, multipotent cells among pGBMs; experiment: Neurosphere assay; format: cell-based, human; conditions: single application 1.5 μM, vital cells collected at day 5
[12] = tested on: pGBM #046 grafts in Rag2Il2rg−/− mice; experiment: Orthotopic tumor xenograft of pre-treated cells; format: in vivo; conditions: niclosamide pre-treated #046 pGBMs, n=5
[13] = tested on: pGBM #GNV019 grafts in Scid Beige mice; experiment: Orthotopic tumor xenograft of pre-treated cells; format: in vivo; conditions: niclosamide pre-treated #GNV019 cells, single exposure, n=6
[14] = tested on: Notch pathway (cleaved Notch 1-protein); experiment: Western blot of cleaved Notch 1; format: cell-based, human; conditions: day 5 after single-dose exposure, 4 pGBMs
Procedure: as §4
(§5) It is known that a circumscribed number of transcription factors and associated signaling pathways are overactive in human cancer cells (21). […] Characteristic for the active state of this mechanism, known to play an important role for tumor invasion, is an enhanced nuclear accumulation of β-catenin, phosphorylated at Ser^552 (26).

[15] = tested on: mTOR signaling (phosphorylated S6-protein); experiment: Western blot of phospho-S6 protein; format: cell-based, human; conditions: day 5 after single-dose exposure, 4 pGBMs
Procedure: as §4, §5

[16] = tested on: phospho-β-catenin (Ser552); experiment: Immunofluorescence of nuclear phospho-β-catenin (Ser552); format: cell-based, human; conditions: pGBMs
Source text: as §5

WNT/CTNNB1 target genes = experiment: qRT-PCR of β-catenin target genes; format: cell-based, human; conditions: pGBMs
Source text: as §5

[17] = tested on: NF-κB-signaling (phospho-p65-NFκB protein); experiment: Western blot of phospho-p65-NFκB (phospho-RELA); format: cell-based, human
NFKBIA = experiment: qRT-PCR of NFKBIA expression; format: cell-based, human; conditions: NFKBIA+/− pGBMs and standard GBM models under dm conditions
Source text: On the other hand, it is known that the inhibition of NF-κB alone may not severely affect most solid tumors, rather that it may help to prevent resistance of cancer cells to chemotherapy (30, 31).

[18] = studies in animals; cited from earlier work
NFKBIA+/− pGBMs = experiment: Control study with NFκB activator in combinatorial treatment; format: cell-based, human; conditions: NFKBIA+/− genotypes; niclo 1 μM, temozolomide 50 μM, TNF-a 50 ng/ml, 3 days
Procedure: FIG. 16: TNF-a antagonizes synergistic activity in NFKBIA+/− pGBMs. Graphs present data from combinatorial treatment paradigms in NFKBIA+/− (black) versus NFKBIA+/+ (gray) pGBMs at 3 days after compound application (niclo, 1 μM; temozolomide, 50 μM; TNF-a, 50 ng/ml). Insets, Western blot analyses of pREL A, indicating NF-kB pathway activity 24 hours after exposure to TNF-a, (Ta; 50 ng/ml) or 0.002% bovine serum albumin (C; control). ***p<0.001; **p<0.01; *p<0.05 (triplicates; mean±SD; one-way ANOVA and Tukey post hoc tests).

## Cn1nnc2c(C(N)=O)ncn2c1=O [TMZ, temozolomide]
pGBMs [1]
  activity at 50 µM: 94 ± 4%
Standard GBM cell lines
  activity at 50 µM: 89 ± 8%

## O=C(Nc1ccc([N+](=O)[O-])cc1Cl)c1cc(Cl)ccc1O [niclosamide]
U87 glioma cell line
  Metabolic activity in % of the activity of a control without niclosamide: 66.5%
[2]; Homo sapiens, 120 h, day 5 after single application, 1 μM of each compound, read-out: Mean metabolic activity of the 4 pGBMs, % of control levels ('hit' criterion)
  activity at 1 µM: < 50%
[2]; average of pGBMs 023, 035, 046, 106, 1 µM niclosamide for 5 days
  Metabolic activity in % of the activity of a control without niclosamide, pGBMs average: 26.4%
[2]; pGBM 023, 1 µM niclosamide for 5 days
  Metabolic activity in % of the activity of a control without niclosamide: 32.3%
[2]; pGBM 035, 1 µM niclosamide for 5 days
  Metabolic activity in % of the activity of a control without niclosamide: 5.6%
[2]; pGBM 046, 1 µM niclosamide for 5 days
  Metabolic activity in % of the activity of a control without niclosamide: 34.6%
[2]; pGBM 106, 1 µM niclosamide for 5 days
  Metabolic activity in % of the activity of a control without niclosamide: 33.0%
[3]
  Metabolic activity in % of the activity of a control without niclosamide: 75.4%
21 pGBMs; day 5, read-out: IC50 (50% reduction of relative metabolic activity), lower end of range over 21 pGBMs
  IC50: ≥ 300 nM
21 pGBMs; day 5, read-out: IC50 (50% reduction of relative metabolic activity), upper end of range over 21 pGBMs
  IC50: ≤ 1200 nM
[4]
  Niclosamide effects on standard GBM model cell lines under dm conditions: highly similar to findings obtained from pGBMs
[5]
  Sensitivity of non-malignant hnNCs compared with pGBMs: significantly lower level of sensitivity
[6]
  Sensitivity of hnNCs in co-culture with pGBMs: lower sensitivity of hnNCs can be confirmed
Cyclin D1
  Cyclin D1 expression: strong decrease
pGBMs [7]; single application 1.5 μM
  Delay of recovery of vital cells from cytostatic effects (long-term growth): 14 to 23 days
pGBMs [7]; single exposure, 1.5 μM, pGBMs 046, 078, 106
  Growth delay: 5 days
pGBMs [8]
  Vital cells (pro-apoptotic effect): strong and pGBM-selective decrease of vital cells
[9]
  Pro-apoptotic effects in non-malignant cells: lack of pro-apoptotic effects
pGBMs [10]
  Effect on migration (scratch closure): anti-migratory effects
[11]
  Frequencies of self-renewing, multipotent (sphere-forming) cells: reduced the frequencies of self-renewing, multipotent cells among pGBMs strongly
[12]; 10^6 cells into striatum
  Time after engraftment at which tumors developed / animals distressed: 153 ± 23 days
[12]
  Animals with tumor development: 4/5
[13]
  Tumor forming capacity of grafted cells: no animal that received niclosamide pre-treated grafts showed evidence for tumor formation; also recorded: completely extinguished the tumor forming capacity
[14]
  Notch pathway activity (cleaved Notch 1-protein levels): concentration-dependent inhibition
[15]
  Levels of phosphorylated S6-protein: decrease in all samples
[16]
  Nuclear phospho-β-catenin (Ser552) antigen: strong decrease
WNT/CTNNB1 target genes
  Expression of β-catenin target genes: significantly decreased
[17]; pGBMs #046 and #078 (NFKBIA+/−) only, of four cases
  NF-κB pathway (phospho-p65-NFκB protein levels): pathway inhibition
NFKBIA
  NFKBIA expression: strongly up-regulate
[18]
  Mutagenic, oncogenic, embryotoxic activity and cumulative effects: no mutagenic, oncogenic, or embryotoxic activity and no cumulative effects

## TNFα
[17]; TNF-a 50 ng/ml, 24 hours
  NFκB activity in pGBMs: activated NFκB
NFKBIA+/− pGBMs
  Effect on niclosamide/TMZ synergy: counteracted synergy effects
